Experimental findings from US20250066343A1, “NOVEL CANNAB[…] DERIVATIVE, PREPARATION METHOD THEREFOR, AND COMPOSITION COMPRISING SAME FOR IMPROVING COGNITIVE FUNCTION” (priority 2021, published 2025) are described below.

Some results are limits rather than exact numbers.

Test [1] has as its target Acetylcholinesterase (AChE) (Homo sapiens, UniProt P22303). The experiment in a line: Acetylcholinesterase inhibitory efficacy (acetylthiocholine/DTNB absorbance assay). The format is biochemical. As to the method:
Acetylcholinesterase or butyrylcholinesterase was prepared at 50 mU/ml, 50 μl was added to a 96-well plate, mixed with the aliquoted compound, and left for 10 minutes. The substrate, acetylthiocoline 0.05 mg/mL or butyrylthiocoline 0.1 mg/ml, was prepared and 50 μl was added to a 96-well plate and left for 10 minutes. Dithionitrobenzoic acid (DTNB) was prepared at 0.3 mg/ml, then 50 μl was added to a 96-well plate and left for 10 minutes.

Test [2] has as its target T1, Monoamine oxidase B (MAO-B) (Homo sapiens, UniProt P27338).
T1 sequence (P27338 1-520): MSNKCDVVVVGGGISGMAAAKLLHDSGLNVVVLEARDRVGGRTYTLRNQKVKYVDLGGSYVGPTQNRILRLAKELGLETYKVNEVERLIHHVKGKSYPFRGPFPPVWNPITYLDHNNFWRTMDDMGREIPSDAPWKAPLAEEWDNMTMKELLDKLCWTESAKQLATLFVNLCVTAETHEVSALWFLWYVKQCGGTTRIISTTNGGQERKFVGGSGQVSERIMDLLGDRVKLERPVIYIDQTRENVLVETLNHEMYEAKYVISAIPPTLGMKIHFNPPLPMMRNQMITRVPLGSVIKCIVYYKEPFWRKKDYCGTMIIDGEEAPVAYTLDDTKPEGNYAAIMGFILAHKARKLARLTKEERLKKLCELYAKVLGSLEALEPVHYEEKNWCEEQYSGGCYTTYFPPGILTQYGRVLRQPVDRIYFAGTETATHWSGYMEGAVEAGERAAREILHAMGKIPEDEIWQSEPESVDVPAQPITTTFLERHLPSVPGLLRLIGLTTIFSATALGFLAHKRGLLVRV
The experiment in a line: Monoamine oxidase B inhibitory efficacy (kynuramine fluorescence assay). The format is biochemical. To be noted: compound 0-200 μM; enzyme 2 mU/mL; kynuramine substrate; N.D. = Not Detected. How it is done: Samples were prepared by dilution with DMSO to give concentrations of 0, 2, 5, 10, 20, 50, 100, and 200 μM of the compound, and 5 μl was dispensed into a 96-well plate. 135 μl of potassium phosphate buffer (0.1 M, 7.4 pH) was dispensed into a 96-well plate. Monoamine oxidase B was prepared at 2 mU/mL, and 50 μl was added to the 96-well plate, mixed with the dispensed compound, and left for 20 minutes. The substrate, kynuramine solution, was prepared at 100 μM, then 10 μl was added to a 96-well plate and left for 10 min. The reaction was stopped by adding 75 μl of NaOH (2N). The enzyme activity was calculated by measuring the concentration of kynuramine degraded by the enzyme using a fluorometer under 310 nm (excitation)/380 nm (emission) conditions. For the fluorescence blank experiment, potassium phosphate buffer was added instead of monoamine oxidase B to correct the compound-induced fluorescence intensity values.

Chain of Acetylcholinesterase (AChE) (P22303 32-614, species assumed): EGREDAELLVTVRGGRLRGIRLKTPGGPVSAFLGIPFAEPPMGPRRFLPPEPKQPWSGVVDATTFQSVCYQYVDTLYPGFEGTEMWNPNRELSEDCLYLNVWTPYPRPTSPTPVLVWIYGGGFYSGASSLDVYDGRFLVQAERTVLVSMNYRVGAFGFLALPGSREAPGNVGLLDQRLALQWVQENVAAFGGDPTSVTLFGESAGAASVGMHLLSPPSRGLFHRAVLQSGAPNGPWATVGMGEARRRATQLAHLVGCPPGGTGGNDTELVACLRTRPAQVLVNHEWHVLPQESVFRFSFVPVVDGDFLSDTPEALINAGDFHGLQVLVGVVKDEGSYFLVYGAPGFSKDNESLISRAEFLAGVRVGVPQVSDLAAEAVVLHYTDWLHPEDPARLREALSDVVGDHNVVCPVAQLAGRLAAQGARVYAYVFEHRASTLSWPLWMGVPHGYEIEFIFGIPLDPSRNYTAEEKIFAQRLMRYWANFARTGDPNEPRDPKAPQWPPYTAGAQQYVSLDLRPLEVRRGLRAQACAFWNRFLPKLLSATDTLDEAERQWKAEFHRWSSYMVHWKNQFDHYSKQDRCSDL

For `CCCCCc1cc2c(c(O)c1C(=O)NC(C)C)C=CC(C)(CCC=C(C)C)O2` (centres unmarked) [Compound 4a, 5-hydroxy-N-isopropyl-2-methyl-2-(4-methylpent-3-en-1-yl)-7-pentyl-2H-chromene-6-carboxamide], the IC50 in test [1] came to 1.3 µM.

Take `CCCCCc1cc2c(c(O)c1C(=O)NC1CCCCCC1)C=CC(C)(CCC=C(C)C)O2` (centres unmarked) [Compound 4ab, N-cycloheptyl-5-hydroxy-2-methyl-2(4-methylpent-3en-1-yl)-7-pentyl-2H-chromene-6-carboxamide]: half-maximal inhibition in test [1] (IC50) was put at 2.6 µM.

On to `CCCCCc1cc2c(c(O)c1C(=O)N1CCc3ccccc3C1)C=CC(C)(CCC=C(C)C)O2` (centres unmarked) [Compound 4ac, (3,4-dihydroisoquinolin-2(1H)-yl)(5-hydroxy-2-methyl-2-(4-methylpent-3-en-1-yl)-7-pentyl-2H-chromen-6-yl)methanone], for which the IC50 in test [1] amounted to 2.1 µM; in test [2], 137 µM.

For the molecule `CCCCCc1cc2c(c(O)c1C(=O)Nc1ccc(Br)cc1)C=CC(C)(CCC=C(C)C)O2` (centres unmarked) [Compound 4ad, N-(4-bromophenyl)-5-hydroxy-2-methyl-2-(4-methylpent-3-en-1-yl)-7-pentyl-2H-chromene-6-carboxamide], the results for the IC50 in test [1] and in test [2] were under 0.5 µM and 12 µM, respectively.

Turning to `CCCCCc1cc2c(c(O)c1C(=O)NC1CCOCC1)C=CC(C)(CCC=C(C)C)O2` (centres unmarked) [Compound 4af, 5-hydroxy-2-methyl-2-(4-methylpent-3-en-1-yl)-7-pentyl-N-(tetrahydro-2H-pyran-4-yl)-2H-chromene-6-carboxamide], the IC50 is 46.1 µM in test [1] and 194 µM in test [2].

For `CCCCCc1cc2c(c(O)c1C(=O)N(C)C1CCCC1)C=CC(C)(CCC=C(C)C)O2` (centres unmarked) [Compound 4ag, N-cyclopentyl-5-hydroxy-N,2-dimethyl-2-(4-methylpent-3-en-1-yl)-7-pentyl-2H-chromene-6-carboxamide], the IC50 was found to be 47.7 µM in test [1] and 14.4 µM in test [2].

Molecule `CCCCCc1cc2c(c(O)c1C(=O)NC1CC1)C=CC(C)(CCC=C(C)C)O2` (centres unmarked) [Compound 4c, N-cyclopropyl-5-hydroxy-2-methyl-2-(4-methylpent-3-en-1-yl)-7-pentyl-2H-chromene-6-carboxamide] registered an IC50 in test [1] of 4.3 µM.

Molecule `CCCCCc1cc2c(c(O)c1C(=O)NCCCC)C=CC(C)(CCC=C(C)C)O2` (centres unmarked) [Compound 4d, N-butyl-5-hydroxy-2-methyl-2-(4-methylpent-3-en-1-yl)-7-pentyl-2H-chromene-6-carboxamide] showed an IC50 in test [1] of 1 µM.

In test [1], `CCCCCc1cc2c(c(O)c1C(=O)NC1CCCCC1)C=CC(C)(CCC=C(C)C)O2` (centres unmarked) [Compound 4f, N-cyclohexyl-5-hydroxy-2-methyl-2-(4-methylpent-3-en-1-yl)-7-pentyl-2H-chromene-6-carboxamide] registered an IC50 of 1.2 µM.

Regarding `CCCCCCCCCNC(=O)c1c(CCCCC)cc2c(c1O)C=CC(C)(CCC=C(C)C)O2` (centres unmarked) [Compound 4g, 5-hydroxy-2-methyl-2-(4-methylpent-3-en-1-yl)-N-nonyl-7-pentyl-2H-chromene-6-carboxamide], the IC50 in test [1] is 0.5 µM; in test [2] it was 111 µM.

In test [1], `CCCCCCCCCCCCNC(=O)c1c(CCCCC)cc2c(c1O)C=CC(C)(CCC=C(C)C)O2` (centres unmarked) [Compound 4h, N-dodecyl-5-hydroxy-2-methyl-2-(4-methylpent-3-en-1-yl)-7-pentyl-2H-chromene-6-carboxamide] displayed an IC50 of 2.3 µM.

On to `C=CCCCCCCCCCNC(=O)c1c(CCCCC)cc2c(c1O)C=CC(C)(CCC=C(C)C)O2` (centres unmarked) [Compound 4i, 5-hydroxy-2-methyl-2-(4-methylpent-3-en-1-yl)-7-pentyl-N-(undec-10-en-1-1)-2H-chromene-6-carboxamide], for which the figures for the IC50 in test [1] and in test [2] were 0.3 µM and 66.8 µM, respectively.

Take `CCCCCc1cc2c(c(O)c1C(=O)NCC(CC)CCCC)C=CC(C)(CCC=C(C)C)O2` (centres unmarked) [Compound 4j, N-(2-ethylhexyl)-5-hydroxy-2-methyl-2-(4-methylpent-3-en-1-yl)-7-pentyl-2H-chromene-6-carboxamide]: the IC50 was 1.3 µM in test [1] and 43.3 µM in test [2].

Consider `CCCCCc1cc2c(c(O)c1C(=O)NC/C=C(\C)CCC=C(C)C)C=CC(C)(CCC=C(C)C)O2` (centres unmarked) [Compound 4k, (E)-N-(3,7-dimethylocta-2,6-dien-1-yl)-5-hydroxy-2-methyl-2-(4-methylpent-3-en-1-yl)-7-pentyl-2H-chromene-6-carboxamide], for which the IC50 in test [1] was 1.3 µM; in test [2] it was 59.3 µM.

As to `CCCCCc1cc2c(c(O)c1C(=O)N1CCS(=O)(=O)CC1)C=CC(C)(CCC=C(C)C)O2` (centres unmarked) [Compound 4l, (1,1-dioxidothiomorpholino)(5-hydroxy-2-methyl-2-(4-methylpent-3-en-1-yl)-7-pentyl-2H-chromen-6-yl)methanone], in test [2], half-maximal inhibition (IC50) required 162 µM.

In the case of `C#CCNC(=O)c1c(CCCCC)cc2c(c1O)C=CC(C)(CCC=C(C)C)O2` (centres unmarked) [Compound 4m, 5-hydroxy-2-methyl-2-(4-methylpent-3-en-1-yl)-7-pentyl-N-(prop-2-yn-1-yl)-2H-chromene-6-carboxamide], the IC50 in test [1] turned out to be 3.6 µM; in test [2], 79.7 µM.

Consider `CCCCCc1cc2c(c(O)c1C(=O)NCCCc1ccccc1)C=CC(C)(CCC=C(C)C)O2` (centres unmarked) [Compound 4n, 5-hydroxy-2-methyl-2-(4-methylpent-3-en-1-yl)-7-pentyl-N--(3phenylpropyl)-2H-chromene-6-carboxamide], for which the IC50 in test [1] was determined as 1.2 µM; in test [2] it was 19 µM.

Take `CCCCCc1cc2c(c(O)c1C(=O)NC1CCN(S(C)(=O)=O)CC1)C=CC(C)(CCC=C(C)C)O2` (centres unmarked) [Compound 4o, 5-hydroxy-2-methyl-2-(4-methylpent-3-en-1-yl)-N-(1-(methylsulfonyl)piperidin-4-yl)-7-pentyl-2H-chromene-6-carboxamide]: in test [2], the IC50 was found to be 8.43 µM.

As to `CCCCCc1cc2c(c(O)c1C(=O)NCc1cc(Br)cs1)C=CC(C)(CCC=C(C)C)O2` (centres unmarked) [Compound 4p, N-((4-bromothiophen-2-yl)methyl)-5-hydroxy-2-methyl-2-(4-methylpent-3-en-1-yl)-7-pentyl-2H-chromene-6-carboxamide], 0.6 µM corresponded to half-maximal inhibition in test [1] (IC50).

On to `CCCCCc1cc2c(c(O)c1C(=O)Nc1ncc(C)s1)C=CC(C)(CCC=C(C)C)O2` (centres unmarked) [Compound 4r, 5-hydroxy-2-methyl-2-(4-methylpent-3-en-1-yl)-N-(5-methylthiazol-2-yl)-7-pentyl-2H-chromene-6-carboxamide], for which the IC50 in test [1] amounted to 1.1 µM; in test [2], 19.1 µM.

`CCCCCc1cc2c(c(O)c1C(=O)N[C@H]1CCCN(C(=O)OC(C)(C)C)C1)C=CC(C)(CCC=C(C)C)O2` (stereo partly drawn) [Compound 4s, tert-butyl(3S)-3-(5-hydroxy-2-methyl-2-(4-methylpent-3-en-1-yl)-7-pentyl-2H-chromene-6-carboxamido)piperidine-1-carboxylate]: the IC50 in test [1] was 52.2 µM; in test [2], 15.5 µM.

In turn, `CCCCCc1cc2c(c(O)c1C(=O)Nc1ccc(C)cc1)C=CC(C)(CCC=C(C)C)O2` (centres unmarked) [Compound 4t, 5-hydroxy-2-methyl-2-(4-methylpent-3-en-1-yl)-7-pentyl-N-(p-tolyl)-2H-chromene-6-carboxamide] returned an IC50 in test [1] of 47.7 µM.

Turning to `CCCCCc1cc2c(c(O)c1C(=O)NC(C)CC)C=CC(C)(CCC=C(C)C)O2` (centres unmarked) [Compound 4v, N-(sec-butyl)-5-hydroxy-2-methyl-2-(4-methylpent-3-en-1-yl)-7-pentyl-2H-chromene-6-carboxamide], in test [1], the IC50 was found to be 6.6 µM.

Consider `CCCCCc1cc2c(c(O)c1C(=O)Nc1ccc(-c3ccc(F)cc3)cc1)C=CC(C)(CCC=C(C)C)O2` (centres unmarked) [Compound 4w, N-(4′-fluoro-[1,1′-biphenyl]-4-yl)-5-hydroxy-2-methyl-2-(4-methylpent-3-en-1-yl)-7-pentyl-2H-chromene-6-carboxamide], for which the IC50 in test [1] amounted to 13.7 µM; in test [2], 7.1 µM.

In turn, `CCCCCc1cc2c(c(O)c1C(=O)NCCS)C=CC(C)(CCC=C(C)C)O2` (centres unmarked) [Compound 4y, 5-hydroxy-N-(2-mercaptoethyl)-2-methyl-2-(4-methylpent-3-en-1-yl)-7-pentyl-2H-chromene-6-carboxamide] had an IC50 in test [1] of 6.2 µM.
